From US11279735B2, “Cyclic peptide antibiotics” (priority 2017, dated 2022) come the findings set out here.

Each structure is given as a SMILES string. Values after ≈ are worked out from the molar mass of the structure shown. *1 amine or outer side, *2 acyl side, *3 side chain or, on linkers, in order; H or OH if unused. Where a SMILES comes first, the peptide text is derived from it. [ ]: non-standard residue; d: D form. The star is where a group is joined. X16 = CCCCCC[C@@H](O[C@@H](C)CN[*:1])[C@@H](C)C(=O)[*:2]; X2 = CCCCCC[C@@H](OC[C@@H](C)N[*:1])[C@@H](C)C(=O)[*:2]; Gly(cHept) = N[C@H](C(=O)O)C1CCCCCC1; aThr = C[C@H](O)[C@H](N)C(=O)O; NMeL = CN[C@@H](CC(C)C)C(=O)O; Chg = N[C@H](C(=O)O)C1CCCCC1; NMeNva = CCC[C@H](NC)C(=O)O; X8 = NC[C@H]1C[C@H](*)C1; Dap = NC[C@H](N)C(=O)O; Propyl(3-NH2) = NCCC*; X24 = NC[C@H](F)C*; X10 = NCCCC*

One test deals with Escherichia coli (E. coli) strain CFT073 ATCC 700928. Type of test: cell-based. As to conditions: ATCC 700928, 22 h. The protocol: In vitro antimicrobial activity of each compound was determined by measuring minimal inhibitor concentrations (MICs) using the broth micro-dilution technique as approved by the Clinical and Laboratory Standards Institute (CLSI) (Methods for Dilution Antimicrobial Susceptibility Tests for Bacteria that Grow Aerobically; Approved Standard—Eighth Edition. CLSI document M07-A8. Wayne, Pa.: Clinical and Laboratroy Standards; 2009). Antibacterial activity was measure against Escherichia coli (E. coli) strain CFT073 ATCC 700928, which is a clinically relevant Gram-negative strain. Cells were inoculated onto plates of Mueller Hinton Agar and grown at 37° C. for 16-18 hours. Inocula suspensions were prepared by scraping cells into 1 mL of testing media (Mueller Hinton II cation adjusted Broth supplemented with 0.002% v/v Tween-80) and diluting to a final OD600 nm of 0.01.
Test compounds were prepared in DMSO at a concentration of 100 uM The compounds were tested under several different dilution formats and the data are reported in Tables 6, 7 and 8. In protocol 1, the compound stocks were diluted into testing media at a concentration of 64 μg/ml and serial 2-fold dilutions were made in the same media, in 96-well U bottom microtiter dishes, for a total of 10 compound concentrations. In protocol 2, the compound stocks were diluted into testing media at a concentration of 4 μg/mL and serial 2-fold dilutions were made in the same media, in 96-well U bottom microtiter dishes, for a total of 10 compound concentrations. In protocol 3, compound stocks were diluted into testing media at a concentration of 0.5 μg/mL, with serial 2-fold dilutions conducted as described above. In protocol 4, compound stocks were diluted into testing media at a concentration of 0.13 μg/mL, with serial 2-fold dilutions conducted as described above. Inocula suspensions were added to the 2-fold serial dilutions of test compounds to a final density of OD OD600 nm of 0.0005 and incubated at 35° C. for 22 hours.
One may read the MIC as the least concentration at which growth counts as inhibited. Low readings indicate inhibition by little substance, high ones a need for much substance. `CCCCCCCCCC[C@H]1OC(=O)CNC(=O)[C@H](C2CCNCC2)NC(=O)[C@H](CO)NC(=O)[C@H]([C@@H](C)CC)NC(=O)[C@H](CC(C)C)N(C)C(=O)[C@@H]1C` [Example 38, (6S,9S,12S,15S,18R,19R)-19-decyl-9-(hydroxymethyl)-15-isobutyl-16,18-dimethyl-12-[(1S)-1-methylpropyl]-6-(4-piperidyl)-1-oxa-4,7,10,13,16-pentazacyclononadecane-2,5,8,11,14,17-hexone] displayed an MIC of 50 µM (≈ 37.6 µg/mL). Regarding `CCC[C@H]1C(=O)N[C@@H](C2CCCCCC2)C(=O)N[C@@H](CN)C(=O)N[C@@H](COC2CC3(CC(N)C3)C2)C(=O)N[C@H](C)CO[C@H](CC2CC3(CCC3)C2)[C@@H](C)C(=O)N1C` (single isomer, unassigned; stereoisomer 2) [Example 170], the MIC was found to be 0.78 µM (≈ 0.624 µg/mL). Compound `CCCCCC[C@H]1OC(=O)CNC(=O)[C@H]([C@@H](O)CO)NC(=O)[C@H](CN)NC(=O)[C@H](C2CCCCC2)NC(=O)[C@H](CC(C)C)N(C)C(=O)[C@@H]1C` [Example 102, (6S,9S,12S,15S,18R,19R)-9-(aminomethyl)-12-cyclohexyl-19-hexyl-15-isobutyl-16,18-dimethyl-6-[(1R)-1,2-dihydroxyethyl]-1-oxa-4,7,10,13,16-pentazacyclononadecane-2,5,8,11,14,17-hexone] gave an MIC of 3.1 µM (≈ 2.16 µg/mL).

`CCCCCC[C@H]1OC[C@@H](C)NC(=O)[C@H](COCCCCN)NC(=O)[C@H](CN)NC(=O)[C@H](C2CCCCC2)NC(=O)[C@H](CC(C)C)N(C)C(=O)[C@@H]1C` [Example 73, (3R,6S,9S,12S,15S,18R,19R)-6-((4-Aminobutoxy)methyl)-9-(aminomethyl)-12-cyclohexyl-19-hexyl-15-isobutyl-3,16,18-trimethyl-1-oxa-4,7,10,13,16-pentaazacyclononadecane-5,8,11,14,17-pentaone] (cyclo([Chg][Dap]S(X10)[X2][NMeL])) gave an MIC of 6.3 µM (≈ 4.65 µg/mL). Compound `CCCCCC[C@H]1OC(=O)CNC(=O)[C@H]([C@H](C)O)NC(=O)[C@H](CN)NC(=O)[C@H](C2Cc3ccccc3C2)NC(=O)[C@H](CCC)N(C)C(=O)[C@@H]1C` [Example 142, (6S,9S,12S,15S,18R,19R)-9-(aminomethyl)-19-hexyl-12-indan-2-yl-16,18-dimethyl-15-propyl-6-[(1S)-1-hydroxyethyl]-1-oxa-4,7,10,13,16-pentazacyclononadecane-2,5,8,11,14,17-hexone] came in with an MIC of 8.8 µM (≈ 6.17 µg/mL).

`CCCCCC[C@H]1OC(=O)CNC(=O)[C@H]([C@H](C)O)NC(=O)[C@H]([C@H](C)O)NC(=O)[C@H]([C@H](C)CC)NC(=O)[C@H](CC(C)C)N(C)C(=O)[C@@H]1C` [Example 100, (6S,9S,12S,15S,18R,19R)-19-hexyl-15-isobutyl-16,18-dimethyl-6,9-bis[(1S)-1-hydroxyethyl]-12-[(1R)-1-methylpropyl]-1-oxa-4,7,10,13,16-pentazacyclononadecane-2,5,8,11,14,17-hexone] yielded an MIC of 35 µM (≈ 23.4 µg/mL).

Consider `CCCCCC[C@H]1OC[C@@H](C)NC(=O)[C@H](CO[C@H]2C[C@H](CN)C2)NC(=O)[C@H](CN)NC(=O)[C@H](C2CCCCCC2)NC(=O)[C@H](CCC)N(C)C(=O)[C@@H]1C` [Example 168, (3R,6S,9S,12S,15S,18R,19R)-9-(Aminomethyl)-6-(((1r,3S)-3-(aminomethyl)cyclobutoxy)methyl)-12-cycloheptyl-19-hexyl-3,16,18-trimethyl-15-propyl-1-oxa-4,7,10,13,16-pentaazacyclononadecane-5,8,11,14,17-pentaone] (cyclo([Dap]S(X8)[X2][NMeNva][Gly(cHept)])), for which the MIC worked out at 3.1 µM (≈ 2.33 µg/mL). On to `CCCCCCCCCC[C@H]1OC(=O)CNC(=O)[C@H]([C@H](C)O)NC(=O)[C@H](CN)NC(=O)[C@H]([C@H](C)CC)NC(=O)[C@H](CC2CCC2)N(C)C(=O)[C@@H]1C` [Example 16, (6S,9S,12S,15S,18R,19R)-9-(aminomethyl)-15-(cyclobutylmethyl)-19-decyl-6-[(1S)-1-hydroxyethyl]-16,18-dimethyl-12-[(1R)-1-methylpropyl]-1-oxa-4,7,10,13,16-pentazacyclononadecane-2,5,8,11,14,17-hexone], for which the minimal inhibitory concentration (MIC) worked out at 6.3 µM (≈ 4.55 µg/mL). In the case of `CCCCCCCCCC[C@H]1OC(=O)CNC(=O)[C@H]([C@H](C)O)NC(=O)[C@H](CO)NC(=O)[C@H](CCC)NC(=O)[C@H](CC(C)C)N(C)C(=O)[C@@H]1C` [Example 40, (6S,9S,12S,15S,18R,19R)-19-decyl-6-((S)-1-hydroxyethyl)-9-(hydroxymethyl)-15-isobutyl-16,18-dimethyl-12-propyl-1-oxa-4,7,10,13,16-pentaazacyclononadecane-2,5,8,11,14,17-hexaone], the MIC was found to be 50 µM (≈ 34.9 µg/mL). This MIC is about 7.9-fold higher than that of the compound before. `CCCCCC[C@H]1OC(=O)CNC(=O)[C@H]([C@H](C)O)NC(=O)[C@H](CN)NC(=O)[C@H](C2CCCCC2)NC(=O)[C@H](CCC)N(C)C(=O)[C@@H]1C` [Example 101, (6S,9S,12S,15S,18R,19R)-9-(aminomethyl)-12-cyclohexyl-19-hexyl-16,18-dimethyl-15-propyl-6-[(1S)-1-hydroxyethyl]-1-oxa-4,7,10,13,16-pentazacyclononadecane-2,5,8,11,14,17-hexone] displayed an MIC of 4.1 µM (≈ 2.73 µg/mL). This MIC is about 12-fold lower than that of the compound before. The compound `CCCC(C)(C)CC[C@H]1OC(=O)CNC(=O)[C@H]([C@H](C)O)NC(=O)[C@H](CN)NC(=O)[C@H]([C@H](C)CC)NC(=O)[C@H](CC(C)C)N(C)C(=O)[C@@H]1C` [Example 103, (6S,9S,12S,15S,18R,19R)-9-(aminomethyl)-19-(3,3-dimethylhexyl)-15-isobutyl-16,18-dimethyl-6-[(1S)-1-hydroxyethyl]-12-[(1R)-1-methylpropyl]-1-oxa-4,7,10,13,16-pentazacyclononadecane-2,5,8,11,14,17-hexone] returned an MIC of 3.1 µM (≈ 2.12 µg/mL). Same read-out and setting: the same measure for `CCCCCC[C@H]1OC[C@@H](C)NC(=O)[C@H](COCCCN)NC(=O)[C@H](CN)NC(=O)[C@H](C2CCCCC2)NC(=O)[C@H](CC(C)C)N(C)C(=O)[C@@H]1C` [Example 131, (3R,6S,9S,12S,15S,18R,19R)-9-(aminomethyl)-6-(3-aminopropoxymethyl)-12-cyclohexyl-19-hexyl-15-isobutyl-3,16,18-trimethyl-1-oxa-4,7,10,13,16-pentazacyclononadecane-5,8,11,14,17-pentone] (cyclo([Chg][Dap]S(Propyl(3-NH2))[X2][NMeL])): 11 µM (≈ 7.96 µg/mL). Same read-out and setting: as for `CCCCCCCCCC[C@H]1OC(=O)CNC(=O)[C@H](COCCOCCN)NC(=O)[C@H](CO)NC(=O)[C@H]([C@@H](C)CC)NC(=O)[C@H](CC(C)C)N(C)C(=O)[C@@H]1C` [Example 92, (6S,9S,12S,15S,18R,19R)-6-[2-(2-aminoethoxy)ethoxymethyl]-19-decyl-9-(hydroxymethyl)-15-isobutyl-16,18-dimethyl-12-[(1S)-1-methylpropyl]-1-oxa-4,7,10,13,16-pentazacyclononadecane-2,5,8,11,14,17-hexone], the figure is 19 µM (≈ 14.9 µg/mL). Compound `CCCCCC[C@H]1O[C@@H](C)CNC(=O)[C@H]([C@H](C)O)NC(=O)[C@H](CN)NC(=O)[C@H](C2CCCCC2)NC(=O)[C@H](CC(C)C)N(C)C(=O)[C@@H]1C` [Example 71, (2S,6S,9S,12S,15S,18R,19R)-9-(Aminomethyl)-12-cyclohexyl-19-hexyl-6-((S)-1-hydroxyethyl)-15-isobutyl-2,16,18-trimethyl-1-oxa-4,7,10,13,16-pentaazacyclononadecane-5,8,11,14,17-pentaone] (cyclo([Chg][Dap][aThr][X16][NMeL])) displayed an MIC of 12 µM (≈ 8.17 µg/mL). Against the preceding compound, the MIC is about 1.6-fold lower. The compound `CCCCCCCCCC[C@H]1OC(=O)CNC(=O)[C@H]([C@H](C)O)NC(=O)[C@H](CO)NC(=O)[C@H]([C@@H](C)CC)NC(=O)[C@H](CCC)N(C)C(=O)[C@@H]1C` [Example 32, (6S,9S,12S,15S,18R,19R)-19-decyl-6-[(1S)-1-hydroxyethyl]-9-(hydroxymethyl)-16,18-dimethyl-12-[(1S)-1-methylpropyl]-15-propyl-1-oxa-4,7,10,13,16-pentazacyclononadecane-2,5,8,11,14,17-hexone] displayed an MIC of 9.4 µM (≈ 6.56 µg/mL). The MIC values of the last two compounds are within 1.5-fold of each other.

The test is the same for the next values; noted with them: E. coli CFT073 ATCC 700928; Mueller Hinton II cation adjusted Broth with 0.002% v/v Tween-80; 35° C. for 22 hours; lowest concentration that completely prevented bacterial growth.
With `CCCCCC[C@H]1OC[C@@H](C)NC(=O)[C@H](COC[C@@H](F)CN)NC(=O)[C@H](CN)NC(=O)[C@H](C2CCCCC2)NC(=O)[C@H](CC(C)C)N(C)C(=O)[C@@H]1C` [Example 158, (3R,6S,9S,12S,15S,18R,19R)-6-(((S)-3-Amino-2-fluoropropoxy)methyl)-9-(aminomethyl)-12-cyclohexyl-19-hexyl-15-isobutyl-3,16,18-trimethyl-1-oxa-4,7,10,13,16-pentaazacyclononadecane-5,8,11,14,17-pentaone] (cyclo([Chg][Dap]S(X24)[X2][NMeL])), the minimum inhibitory concentration (MIC) stood at 12 µM (≈ 8.9 µg/mL).
